Laboratory results published in a melting point compilation (Tetko et al.; mined from patent text by program, amines drawn as free bases though some values may be those of a salt).

Row | melting point [°C] | SMILES
1 | 114 to 115 | COC(=O)C(C)c1ccc2nc(-c3ccc(Cl)cc3)ccc2c1 (stereo not given)
2 | > 300 | COc1ccccc1-c1c(O)c2ccc(Cl)cc2[nH]c1=O
3 | 81 to 82 | COc1cccc(NC(C)=O)c1
4 | 73 to 77 | CC(Br)c1cccc2c(-c3ccccc3)onc12 (stereo not given)
5 | 86 to 88 | FC(F)(F)Oc1cccc(-c2nc(-c3ccccn3)no2)c1
6 | 219 to 220 | N#CCCNC(=O)c1cccc(-c2ccc3c(n2)N(c2ccc(Cl)cc2Cl)CC3)c1
7 | 189 to 192 | c1cc(-c2ccc3nncn3n2)cs1
8 | 132 to 134 | COC(=O)Cc1c(C)n(Cc2ccc(Cl)cc2)c2ccc(OCc3ccc4ccccc4n3)cc12
9 | 155 to 157 | CCn1cc(C(=O)O)c(=O)cc1Cl
10 | 120 to 130 | O=CCOc1cccc(C(=O)O)c1
11 | 101 to 103 | Fc1ccc(CNc2nc(OCc3ccccc3)nc(OCC(F)(F)F)n2)cc1
12 | 79 to 80 | CC(=O)SCC(CC(=O)c1ccc(Br)cc1)C(=O)OCc1ccccc1 (stereo not given)
13 | 158 to 161 | O=C(NCc1ccccc1)c1ccnc(-n2ccc(OCc3ccccc3)cc2=O)c1
14 | 200 to 201 | CC1(C)CCC(C)(C)c2cc(NC(=O)c3ccc(C(=O)O)nc3)ccc21
15 | 106 to 107 | OCc1cc2cc(OCc3ccccc3)ccc2[nH]1
16 | 220 to 222 | Cc1scc2c1N(C(=O)N1CC3CN(C)CC3C1)c1ccccc1NC2=O (stereo not given)
17 | 86 to 88 | COc1ccc(C2=C(CC(C)N(C)C(C)C)C(=O)NCCC2)cc1 (stereo not given)
18 | 242 to 244 | O=C(O)c1cn(-c2ccc(F)cc2F)c2nc(Cl)c(F)cc2c1=O
19 | > 250 | O=C1NC(=O)C(=Cc2ccc3c(c2)c2ccccc2n3Cc2ccc(-c3ccccc3)cc2)S1
20 | 156 to 157 | CC[C@H](C)[C@H](OCc1ccccc1)[C@H]1[C@H]([N+](=O)[O-])[C@H](c2ccccc2)N[C@@H]1C(=O)NCC(=O)O
21 | 209 to 210 | COc1cc(COc2nn(-c3ccccc3)cc2C(=O)O)ccc1OCc1nc(-c2ccccc2)oc1C
22 | 168 to 172 | COc1ccc(OC)c(S(=O)(=O)NC(=O)C(C)Oc2cc(-n3nc(C)n(C(F)F)c3=O)c(F)cc2Cl)c1 (stereo not given)
23 | 139 to 140 | CC1(C)C=C(c2ccccc2O)c2cc(C#N)ccc2O1
24 | 168 to 169 | Cc1ccc(C(=O)Nc2c[nH]nc2C(=O)NCCOC(C)C)cn1
25 | 222 to 224 | Cc1ccc(NC(=O)NCc2cccc3c2C(=O)N(C2CCC(=O)NC2=O)C3=O)cc1C (stereo not given)
26 | 163 to 165 | CN1CCN(c2ccccc2C(F)(F)F)C(C2=NCCN2)C1 (stereo not given)

Row | melting point [°C] | SMILES
27 | 285 to 286 | Cn1nc(CCc2ccncc2)c2c(=O)n(-c3ccccc3)c3ncccc3c21
28 | 115 | CCOC(=O)C1=C(N2CCCC2)N=C(C)C(C(=O)OCC)C1c1ccccc1C#N (stereo not given)
29 | 192 to 193 | CCN(c1cccc(C(=O)Nc2cc(NC(=O)c3cccc(N4CCOCC4)c3)ccc2C)c1)S(C)(=O)=O
30 | 121 to 123 | O=c1c2cc(F)c(F)cc2n(CC2CC2)c(=O)n1OCc1ccccc1
31 | 166 | CC(=O)NCc1cncn1C1c2ccccc2CCC1(C)C (stereo not given)
32 | 124 to 125 | Cc1onc(-c2ccccc2)c1C(=O)NCCCN1CCN(c2ccccc2OCC(F)(F)F)CC1
33 | 167 to 168 | Cc1cccc(CCC(C)O)c1NC(=O)CC1c2ccccc2Oc2ccccc21 (stereo not given)
34 | 111 to 115 | Cc1cc(N)ccc1NC(=O)c1ccc(N)cc1
35 | 41 to 42 | CCCCCCN(Cc1ccc(F)cc1)c1ccc(C(=O)OCC)cc1
36 | 135 to 136 | CC(=O)N(CCCCC(=O)O)C(c1ccccc1)c1ccccc1
37 | 84 to 86 | CCCC(C(=O)N(C)C)n1cc(C)c(-c2ccccc2)n1 (stereo not given)
38 | 118 | CCN(CC)c1nc2cc(C)nn2c2ccncc12
39 | 72 to 78 | O=C(C(=O)c1ccccc1Br)c1ccc(F)cc1
40 | 90.5 to 91 | COc1ccc(C(=O)N2CCCC2=O)cc1OC(=O)c1ccccc1
41 | 144 | CC1(c2ccccc2)OC(C(=O)O)Oc2ccc(Cl)cc21 (stereo not given)
42 | 196 | Cc1ccc(S(=O)(=O)N2CC3=C(C2)C(Cc2ccccc2)NCC3)cc1 (stereo not given)
43 | 167 to 170 | NS(=O)(=O)c1cc(C(=O)c2cc3ccccc3o2)ccc1Cl
44 | 57 to 59 | CC(C)(CNC(=O)[C@H](O)[C@H](O)COC(=O)Cc1ccccc1Nc1c(Cl)cccc1Cl)SN=O
45 | 180 to 181 | O=C1NC(=O)C(Cc2ccc3c(c2)CN(c2ccccn2)CCO3)S1 (stereo not given)
46 | 251 to 253 | O=C1NC(=O)C2(C(=O)N(Cc3ccc(Cl)c(Cl)c3)c3ccccc32)N1C(=O)c1ccccc1 (stereo not given)
47 | 141 to 145 | CCCN(CCC)C1Cc2cc3c(cc2C1)C(=O)N(Cc1ccc(C#N)cc1)C3 (stereo not given)
48 | 150 to 151 | COc1ccc2c(c1)c(C1CCN(CCOc3ccccc3C(=O)O)CC1)cn2Cc1cccs1
49 | 277 to 279 | Cc1c(NC(=O)CC(C)(C)C)c(C)c2c(c1-c1c[nH]cn1)OCC2c1ccc(C(C)C)cc1 (stereo not given)
50 | 153 to 154 | COC(OC)C1(C)CN=C(c2cc3cccc(N(C)S(=O)(=O)c4cccs4)c3[nH]2)S1 (stereo not given)
51 | 169 | CC(C)(OCc1cc2nc(Cl)ccc2n1S(=O)(=O)c1ccc2c(c1)CCO2)C(=O)O
52 | 200 to 201 | COc1cn(-c2ccc(N3CC4(CC4)OC3=O)cc2F)nc(-c2ccnn2-c2ccccc2)c1=O

Second part, the compound before the results:

Row | SMILES | melting point [°C]
53 | O=c1[nH]nc(-c2ccc(OC3CCN(C4CCC4)CC3)cc2)c2c1CCC2 | 210 to 213
54 | COc1ccc(N(C(=O)CN2C(=O)CC(=O)N(c3ccncc3)c3ccccc32)C(C)C)cc1 | 211 to 213
55 | CCCCCCCCCCCC1CC(O)C(CCCCCC)C(=O)O1 (stereo not given) | 98 to 99
56 | COc1ccc2c(=O)c(-c3ccc(OCC(O)CN4CCOCC4)cc3)coc2c1 (stereo not given) | 117 to 118
57 | COC(=O)[C@@]12CN(Cc3ccccc3)C[C@@H]1[C@@](O)(c1ccc(C)cc1)CC[C@H]2c1ccccc1 (racemic) | 164
58 | O=C(O)C1=Cc2cc(OC(F)(F)F)ccc2OC1C(F)(F)F (stereo not given) | 118 to 120
59 | Cn1c(CO)nnc1NCCCOc1cccc(CN2CCCCC2)c1 | 151 to 152
60 | CC(C)Nc1cccnc1N1CCN(C(=O)c2cc3cc(NC(=O)N4CCN(C)CC4)ccc3[nH]2)CC1 | 200
61 | C#CC(Cc1ccc(OC)c(OC2CCCC2)c1)C(=O)O (stereo not given) | 109 to 110
62 | OC1C(COC2CC2)OC(n2cnc3c(NCc4cccc(I)c4)nc(Cl)nc32)C1O (stereo not given) | 94 to 96
63 | CCC1(c2cn(-c3c(Cl)cc(C(F)(F)F)cc3Cl)nc2C#N)CC1(Br)Br (stereo not given) | 107 to 108
64 | Nc1nnc(-c2ccc(F)c(F)c2Nc2ccc(Br)cc2F)o1 | 245
65 | Cc1cc(F)ccc1-c1nc(NC2CCCCC2)nc2c1ccc(=O)n2-c1c(F)cccc1F | 218 to 219
66 | Cn1ccnc1S(=O)CC(=O)C12CC3CC(CC(C3)C1)C2 (stereo not given) | 86 to 89
67 | NC(=O)[C@@H]1[C@H](Nc2c(Br)cnc3[nH]c(-c4ccsc4)nc23)[C@H]2C=C[C@@H]1C2 | 238 to 241
68 | CC(C)Oc1c(Br)csc1C(=O)Nc1nnn[nH]1 | 193 to 194
69 | O=C(O)C1CCc2nc3cc(Cl)ccc3c(Cl)c2C1 (stereo not given) | > 250
70 | O=C(Nc1ccc(F)cc1F)Nc1cnc2cnccc2c1-c1ccccc1Cl | 213 to 216
71 | CN(C(=O)C(=O)c1cn(Cc2ccc(Cl)cc2)c2ccccc12)C1=CC(=O)OC1 | 205 to 208
72 | N#Cc1ccc(N2C(=O)NC(=Cc3ccccc3O)C2=O)c2ccccc12 | 146 to 149
73 | NNC(=O)Nc1cccc2c1C(=O)c1c-2n[nH]c1-c1ccc(N2CCNCC2)cc1 | 257
74 | CS(=O)(=O)c1ccc(C(=O)Nc2ccc(-n3nc(C(F)(F)F)cc3C(F)(F)F)cc2)c(Cl)c1 | 219 to 220

Row | SMILES | melting point [°C]
75 | Nc1ccc(-c2ccc(Cl)cc2)cn1 | 122 to 124
76 | CC1(CN=[N+]=[N-])COC(Cn2ccnc2)(c2ccc(Cl)cc2Cl)OC1 (stereo not given) | 132 to 133
77 | CCC=CCn1c(=O)sc2c(=O)[nH]c(N)nc21 | 240 to 243
78 | CP(C)(=O)COC(=O)c1cncn1C(c1ccccc1)c1ccccc1 | 174
79 | CC(C)C(Br)C(=O)NCC(=O)O (stereo not given) | 138 to 139
80 | O=C(Nc1ccc(-n2nc(C(F)(F)F)cc2C(F)(F)F)cc1)c1c(F)cccc1F | 127 to 128
81 | Cc1cc2c3c(cc(C)c2[nH]c1=O)CC(C)(CN=[N+]=[N-])O3 (stereo not given) | 232 to 234
82 | CCNc1nc(N)nc2c1ncn2C1CC(N=[N+]=[N-])C(CO)O1 (stereo not given) | 199 to 201
83 | CN1CCN(c2c(F)c(F)c([N+](=O)[O-])c(NC3CC3)c2F)CC1 | 75
84 | FC(F)(F)c1ccc(-c2cc(Oc3cccc4cnccc34)nnc2Oc2cccc3cnccc23)cc1 | 197 to 199
85 | Nc1cccc(Oc2ccc(C(=O)c3ccc(C(=O)c4ccc(Oc5cccc(N)c5)cc4)cc3)cc2)c1 | 161 to 163
86 | NCc1cccc(CNc2ncc3ncnc(Nc4ccc(F)c(Cl)c4)c3n2)c1 | 179 to 182
87 | COc1cc(C(=O)[C@H](C)NC(=O)C(F)(F)F)c(OC)cc1Br | 144 to 145
88 | CS(=O)c1ccc(-c2cnn(CC(F)(F)F)c(=O)c2-c2ccc(Cl)cc2)cc1 (stereo not given) | 154 to 155
89 | NC(=O)C1Cc2cc(F)ccc2N1 (stereo not given) | 197 to 199
90 | CC(=O)Oc1cccc2c1C(=O)c1c(O)cccc1C2C(=O)C1CCCCC1 (stereo not given) | 154
91 | COc1cccc2c1nc(C(F)F)n2-c1nc(NC2CCN(C(=O)OC(C)(C)C)CC2)c([N+](=O)[O-])c(N2CCOCC2)n1 | 229 to 231
92 | COc1ccc(C(=O)Nc2ccc(Cl)c(Cl)c2)cc1NCc1cccnc1 | 145 to 147
93 | O=C(O)c1ccc(NC(=O)c2ccccc2SSc2ccccc2C(=O)Nc2ccc(C(=O)O)cc2)cc1 | > 285
94 | CC1(c2c[nH]cn2)CCCCC1 | 73 to 75
95 | CNC1CCCN(c2c(F)cc3c(=O)c(C(=O)O)cn(C4CC4)c3c2OC)C1 (stereo not given) | 134 to 135
